In PMC7247319, “The mitochondria-targeted peptide SS-31 binds lipid bilayers and modulates surface electrostatics as a key component of its mechanism of action” (The Journal of Biological Chemistry, 2020):
Where a SMILES comes first, the peptide text is derived from it. [ ]: non-standard residue; d: D form. Dmt = Cc1cc(O)cc(C)c1C[C@H](N)C(=O)O

Tested on: LUVs containing 20% TOCL or POPG in POPC background
Experiment: Fluorescent reporters of lipid dynamics and packing (DPH anisotropy, laurdan and prodan GP)
Procedure: Figure 4. Effects of SS-31 on structural properties of model membranes. […] LUVs composed of 20% anionic lipid (TOCL, MLCL, or POPG) in POPC background were measured in the absence or presence of peptide ([SS-31]/[lipid]^eff = 1:5) as indicated. A, synchrotron SAXS measurements showing background-subtracted scattering density profiles for LUVs in the absence (black) or presence (red) of SS-31. B, ^31P solid-state NMR spectra of LUVs in the absence (bottom spectra) or presence (top spectra) of SS-31. C, SS-31 alters lipid packing interactions. Shown are changes in laurdan and prodan GP values (ΔGP) with increasing [SS-31] for LUVs containing 20% TOCL or POPG in POPC background as indicated. Data and fits in gray show SS-31 fractional saturation (calculated from Fig. 2A, [lipid]^eff = 25 μM). […]
We therefore addressed whether SS-31 altered lipid interactions within these model bilayers. […] Using 1,6-diphenyl-1,3,5-hexatriene (DPH) anisotropy (〈r〉^DPH) as a readout of the fluid dynamics of hydrocarbon tails, we observed no effect of SS-31 in TOCL- or POPG-containing membranes (Fig. S10, D and E). […]
Steady-state fluorescence measurements were performed with a Fluorolog 3-22 spectrofluorometer (HORIBA Jobin-Yvon) equipped with photon-counting electronics, double-grating excitation and emission monochromators, automated Glan–Thompson polarizers, and a 450-watt xenon lamp. […]

Cc1cc(O)cc(C)c1C[C@H](NC(=O)[C@H](N)CCCNC(=N)N)C(=O)N[C@@H](CCCCN)C(=O)N[C@@H](Cc1ccccc1)C(N)=O [SS-31, D-Arg-2′6′-dimethyl-Tyr-Lys-Phe-NH2] (H-[dR][Dmt]KF-NH2)
effect on DPH anisotropy (fluid dynamics of hydrocarbon tails) (TOCL- or POPG-containing membranes): no effect
effect on laurdan and prodan generalized polarization (GP^LAU, GP^PRO) (increasing [SS-31], 20% TOCL or POPG LUVs, n = 3): modest, yet repeatable and saturable, increases
